Measurements published in US9585877B2, “Methods of maintaining, treating or improving cognitive function” (Forum Pharmaceuticals, Inc., priority 2012, dated 2017).

System: subjects with mild-to-moderate Alzheimer's disease
Test: Clinical study, ADAS-Cog-11
Assay type: in vivo, human
Description: A double-blind study of 3 doses of the Test Composition or placebo in subjects with mild-to-moderate Alzheimer's disease, with or without receiving a concomitant AChEI for 24 weeks (168 days) after a 7 day placebo run-in period.
Total number of subjects in the safety population was 409 subjects that were dosed once-daily with a dosing-capsule for a period of 168 days. The subjects dosed, and the particular dosing, included: 104 subjects dosed with Placebo capsule; and 305 subjects dosed with Test Compound (104 subjects with 0.3 mg capsules; 101 subjects with 1 mg capsules; and 100 subjects with 2 mg capsules).
The population included generally healthy male or female subjects, aged 50 to ≦85 years, with mild-to-moderate Alzheimer's disease, consistent with criteria defined by a Work Group of the National Institute of Neurological and Communicative Disorders and Stroke—Alzheimer's Disease and Related Disorders Association, of mild to moderate severity, with a Mini-Mental State Examination score (MMSE) 14 and ≦24, and a Clinical Dementia Rating Scale Sum of the Boxes (CDR-SB) score of 2. […] Subjects were required to be either receiving a stable dose of an AChEI (donepezil or rivastigmine) for at least 3 months before screening or not presently being treated with an AChEI or mementine for at least 30 days.
Subjects with mild to moderate Alzheimer's disease receiving stable treatment with an AChEI (donepezil or rivastigmine: ‘add-on’ subjects) or not receiving an AChEI (de novo subjects′) received 0.3, 1, or 2 mg doses of Test Composition or placebo for up to 24 weeks (168 days) of double-blind treatment, after a 7-day single-blind, placebo run-in period to assess study drug compliance. A follow-up telephone contact was conducted approximately 15 days after the last dose of study drug for questions regarding safety.
Cognitive Part of the Alzheimer's Disease Assessment Scale (ADAS-Cog-11)
The ADAS-cog-11 test employed herein is based on the procedure developed in the adapted version of the Administration and Scoring Manual for the Alzheimer's Disease Assessment Scale, 1994 Revised Edition, Richard C. Mohs, Ph.D., © 1994 by The Mount Sinai School of Medicine, manual modified by Donald Connor, Ph.D., and Kimberly Schafer, M.S. (3/98).
The ADAS-cog-11 test includes the following test items: (1) Word Recall, (2) Naming Objects/Fingers, (3) Commands, (4) Construction Praxis, (5) Ideational Praxis, (6) Orientation, (7) Word Recognition, (8) Remembering Test Instructions, (9) Spoken Language Ability, (10) Word Finding Difficulty, and (11) Comprehension.
The ADAS-cog-11 total score ranges from 0 to 70 (higher scores indicate more severe impairment). A decrease from baseline indicates improvement.

How did the “ADAS-Cog-11 (Baseline was assigned the value of zero @ Week 0)” value (0.3 mg daily dose, Week 4) turn out when `Cl.O.O=C(N[C@H]1CN2CCC1CC2)c1cc2cccc(Cl)c2s1` [Test Compound, (R)-7-chloro-N-(quinuclidin-3-yl)benzo[b]thiophene-2-carboxamide, hydrochloride, monohydrate] was run?
Its value is −0.3534.

What about the “ADAS-Cog-11 (Baseline was assigned the value of zero @ Week 0)” value (0.3 mg daily dose, Week 12) of the same compound?
The value was −0.2129.

What about the “ADAS-Cog-11 (Baseline was assigned the value of zero @ Week 0)” value (0.3 mg daily dose, Week 18) of the same compound?
Its value is −0.067.

What about the “ADAS-Cog-11 (Baseline was assigned the value of zero @ Week 0)” value (0.3 mg daily dose, Week 23) of the same compound?
Its value is 0.2755.

What about the “ADAS-Cog-11 (Baseline was assigned the value of zero @ Week 0)” value (1 mg daily dose, Week 4) of the same compound?
Its value is −0.3412.

And the “ADAS-Cog-11 (Baseline was assigned the value of zero @ Week 0)” value (1 mg daily dose, Week 12)?
The value was −0.8317.

What about the “ADAS-Cog-11 (Baseline was assigned the value of zero @ Week 0)” value (1 mg daily dose, Week 18) of the same compound?
Its value is 0.1063.

And the “ADAS-Cog-11 (Baseline was assigned the value of zero @ Week 0)” value (1 mg daily dose, Week 23)?
Its value is 0.3534.

And the “ADAS-Cog-11 (Baseline was assigned the value of zero @ Week 0)” value (2 mg daily dose, Week 4)?
The value was −0.0031.

And the “ADAS-Cog-11 (Baseline was assigned the value of zero @ Week 0)” value (2 mg daily dose, Week 12)?
Its value is −0.998.

And the “ADAS-Cog-11 (Baseline was assigned the value of zero @ Week 0)” value (2 mg daily dose, Week 18)?
The value was −1.1519.

And the “ADAS-Cog-11 (Baseline was assigned the value of zero @ Week 0)” value (2 mg daily dose, Week 23)?
Its value is −1.1188.

And the “ADAS-Cog 11 Effect Size” value (2 mg dose versus Placebo)?
The value was 0.34.
